According to patent publication US9884832B2 (priority 2011, dated 2018):

Target: AM2 S31N (serine→asparagine mutation at residue 31 in the M2 protein) (Influenza A virus, UniProt P0DOF5, S31N)
Assay type: cell-based, influenza virus A/Udorn/72
Settings: not given

| SMILES | S31N OOcyte Inhibition at 100 uM (%) |
| --- | --- |
| Cc1ccc(CNC23CC4CC(CC(C4)C2)C3)cc1 [Example 8a, N-(4-Methylbenzyl)adamantan-1-amine] | B (key: (A)=31-95%; (B)=0-30%) |
| c1cc(C2CC2)ccc1CNC12CC3CC(CC(C3)C1)C2 [Example 9a, N-(4-Cyclopropylbenzyl)adamantan-1-amine] | A (key: (A)=31-95%; (B)=0-30%) |

Same assay, conditions: pH 5.5

| SMILES | S31N OOcyte Inhibition at 100 uM (%) |
| --- | --- |
| Clc1ccc(CNC23CC4CC(CC(C4)C2)C3)cc1 [Example 1b, N-(4-Chlorobenzyl)adamantan-1-amine] | A (key: (A)=31-95%; (B)=0-30%) |
| Oc1cc(I)ccc1CNC12CC3CC(CC(C3)C1)C2 [Example 2b] | A (key: (A)=31-95%; (B)=0-30%) |
| CC(NC12CC3CC(CC(C3)C1)C2)c1ccc(C(C)(C)C)cc1 (stereo not drawn) [Example 3b, N-(1-(4-(tert-butyl)phenyl)ethyl)adamantan-1-amine] | B (key: (A)=31-95%; (B)=0-30%) |
| CC(NC12CC3CC(CC(C3)C1)C2)c1ccc(-c2ccccc2)cc1 (stereo not drawn) [Example 4b, N-(1-([1,1′-biphenyl]-4-yl)ethyl)adamantan-1-amine] | B (key: (A)=31-95%; (B)=0-30%) |
| Cc1csc(-c2ccc(CNC34CC5CC(CC(C5)C3)C4)cc2)c1 [Example 5b, N-(4-(4-Methylthiophen-2-yl)benzyl)adamantan-1-amine] | A (key: (A)=31-95%; (B)=0-30%) |
| Oc1cc(F)ccc1CNC12CC3CC(CC(C3)C1)C2 [Example 6b] | A (key: (A)=31-95%; (B)=0-30%) |
| Oc1cc(-c2ccco2)ccc1CNC12CC3CC(CC(C3)C1)C2 [Example 7b, 2-((-Adamantan-1-ylamino)methyl)-5-(furan-2-yl)phenol] | A (key: (A)=31-95%; (B)=0-30%) |
| Oc1cc(-c2ccsc2)ccc1CNC12CC3CC(CC(C3)C1)C2 [Example 8b] | A (key: (A)=31-95%; (B)=0-30%) |
| Oc1cc(Cl)ccc1CNC12CC3CC(CC(C3)C1)C2 [Example 9b, 2-((-Adamantan-1-ylamino)methyl)-5-chlorophenol] | A (key: (A)=31-95%; (B)=0-30%) |
| Clc1nc(CNC23CC4CC(CC(C4)C2)C3)ns1 [Example 10b, N-((5-chloro-1,2,4-thiadiazol-3-yl)methyl)adamantan-1-amine] | A (key: (A)=31-95%; (B)=0-30%) |
| c1csc(-c2nc(CNC34CC5CC(CC(C5)C3)C4)cs2)c1 [Example 11b, N-((2-(thiophen-2-yl)thiazol-4-yl)methyl)adamantan-1-amine] | A (key: (A)=31-95%; (B)=0-30%) |
| Cc1nc(CNC23CC4CC(CC(C4)C2)C3)cs1 [Example 12b, N-((2-methylthiazol-4-yl)methyl)adamantan-1-amine] | A (key: (A)=31-95%; (B)=0-30%) |
| Clc1ncc(CNC23CC4CC(CC(C4)C2)C3)s1 [Example 13b, N-((2-chlorothiazol-5-yl)methyl)adamantan-1-amine] | B (key: (A)=31-95%; (B)=0-30%) |
| FC(F)(F)c1nnc(CNC23CC4CC(CC(C4)C2)C3)o1 [Example 14b, N-((5-(trifluoromethyl)-1,3,4-oxadiazol-2-yl)methyl)adamantan-1-amine] | A (key: (A)=31-95%; (B)=0-30%) |
| COc1ccccc1-c1nc(CNC23CC4CC(CC(C4)C2)C3)no1 [Example 15b, N-((5-(2-methoxyphenyl)-1,2,4-oxadiazol-3-yl)methyl)adamantan-1-amine] | A (key: (A)=31-95%; (B)=0-30%) |
| Cc1ncc(CNC23CC4CC(CC(C4)C2)C3)s1 [Example 16b, N-((2-methylthiazol-5-yl)methyl)adamantan-1-amine] | B (key: (A)=31-95%; (B)=0-30%) |
